# Test system: NQO1
# Assay: NQO1/NADH/NAC cell-free reaction in 96-well plate: oxygen consumption rate (Seahorse XF Analyzer) and hydrogen peroxide produced (absorption at 240 nm)
# Format: biochemical
# Source text: Referring now to FIG. 1C-1D, data graphs are provided illustrating the results of one sample experiment for hydrogen peroxide produced using the one or more embodiments of the present disclosure described herein. In particular, FIG. 1C illustrates the generation of superoxide radicals by using the Oxygen Consumption Rate (OCR) with respect to time as a proxy for one experiment. Here, the experiment comprised using a Seahorse Bioscience XF Analyzer® instrument to measure the OCR with respect to time. In addition, a 96-well plate was used wherein each well was filled with 140 microliters of 100 units of NQO1, NADH, 4 micromolar NAC (β-Lacaphone), 50 millimolar Tris-HCl at pH 7 wherein the solutions were kept at atmospheric temperature. […] Further, at the conclusion of this 7-hour period, approximately […] hydrogen peroxide was produced and measured. […] Specifically, referring to FIG. 1D, the hydrogen peroxide concentration was measured using a spectrophotometric absorption of 240 nm corresponding to hydrogen peroxide.
smiles,measurement,setting,value
CC1(C)CCC2=C(O1)c1ccccc1C(=O)C2=O [β-lapachone],resulting hydrogen peroxide concentration,"7-hour run cycle, spectrophotometric absorption 240 nm",> 30%
same,"Oxygen Consumption Rate (OCR) with respect to time, proxy for generation of superoxide radicals","100 units NQO1, NADH, 4 micromolar NAC, 50 millimolar Tris-HCl pH 7, atmospheric temperature, 7-hour period, measured every 2 minutes, versus DMSO vehicle control wells",dramatically increased and sustained OCR
same,hydrogen peroxide produced and measured,"at conclusion of 7-hour period, 100 units NQO1, NADH, 4 micromolar NAC, 50 millimolar Tris-HCl pH 7, spectrophotometric absorption 240 nm",approximately 12 molar

# Reference: patent US10947566B1, “Hydrogen peroxide production method, system, and apparatus” (SOLUGEN, INC., priority 2015, dated 2021)
